Assay results reported in PubChem BioAssay AID2060340 (Molecular Pharmacology Branch, DTP, NCI, 2025).

Tested on: 349418-098-R-PDC spheroids, viability, % test/control
Assay: Anticancer human tumor 349418-098-R-PDC patient-derived lung adenocarcinoma cell line growth inhibition [IpAb]
Settings: spheroids with HUVEC and MSC; for IC50: curve of first compound; for viability, T/C: stronger effect = lower value
Method in brief: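 Multi-cell spheroids of 60% tumour cells, 25% HUVEC and 15% MSC in ultra-low-attachment U-bottom wells, treated with agents combined with ipatasertib or abemaciclib. Half-log ranges top out near clinical Cmax, or 10 microM when Cmax is unknown.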

[1] = second compound 0.01 µM, first compound 0.00949 µM
[2] = second compound 0.01 µM, first compound 0.03 µM
[3] = second compound 0.01 µM, first compound 0.0949 µM
[4] = second compound 0.01 µM, first compound 0.3 µM
[5] = second compound 0.0316 µM, first compound 0.00949 µM
[6] = second compound 0.0316 µM, first compound 0.03 µM
[7] = second compound 0.0316 µM, first compound 0.0949 µM
[8] = second compound 0.0316 µM, first compound 0.3 µM
[9] = second compound 0.1 µM, first compound 0.00949 µM
[10] = second compound 0.1 µM, first compound 0.03 µM
[11] = second compound 0.1 µM, first compound 0.0949 µM
[12] = second compound 0.1 µM, first compound 0.3 µM
[13] = second compound 0.316 µM, first compound 0.00949 µM
[14] = second compound 0.316 µM, first compound 0.03 µM
[15] = second compound 0.316 µM, first compound 0.0949 µM
[16] = second compound 0.316 µM, first compound 0.3 µM
[17] = second compound 1 µM, first compound 0.00949 µM
[18] = second compound 1 µM, first compound 0.03 µM
[19] = second compound 1 µM, first compound 0.0949 µM
[20] = second compound 1 µM, first compound 0.3 µM
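Also: spheroids exposed to compounds for 7 days.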

SMILES | IC50 (second compound 0.01 µM) [nM] | IC50 (second compound 0.0316 µM) [nM] | IC50 (second compound 0.1 µM) [nM] | IC50 (second compound 0.316 µM) [nM] | IC50 (second compound 1 µM) [nM] | viability, T/C [1] [%] | viability, T/C [2] [%] | viability, T/C [3] [%] | viability, T/C [4] [%] | viability, T/C [5] [%] | viability, T/C [6] [%] | viability, T/C [7] [%] | viability, T/C [8] [%] | viability, T/C [9] [%] | viability, T/C [10] [%] | viability, T/C [11] [%] | viability, T/C [12] [%] | viability, T/C [13] [%] | viability, T/C [14] [%] | viability, T/C [15] [%] | also measured
CC(=O)c1c(C)c2cnc(Nc3ccc(N4CCNCC4)cn3)nc2n(C2CCCC2)c1=O + CCN1CCN(Cc2ccc(Nc3ncc(F)c(-c4cc(F)c5nc(C)n(C(C)C)c5c4)n3)nc2)CC1 | 6.56 | < 0.949 | < 0.949 | < 0.949 | < 0.949 | 40.4 | 35.1 | 19.1 | 15.8 | 28.5 | 23.6 | 15.1 | 15.6 | 20.7 | 19.5 | 16.1 | 14.6 | 19 | 16 | 13.8 | viability, T/C (second compound 0.01 µM, first compound 0.000949 µM): 58.4%; viability, T/C (second compound 0.01 µM, first compound 0.003 µM): 64.5%; viability, T/C (second compound 0.0316 µM, first compound 0.000949 µM): 40.7%; viability, T/C (second compound 0.0316 µM, first compound 0.003 µM): 38.7%; viability, T/C (second compound 0.1 µM, first compound 0.000949 µM): 24.8%; viability, T/C (second compound 0.1 µM, first compound 0.003 µM): 24.8%; viability, T/C (second compound 0.316 µM, first compound 0.000949 µM): 16.8%; viability, T/C (second compound 0.316 µM, first compound 0.003 µM): 19.6%; viability, T/C [16]: 14.4%; viability, T/C (second compound 1 µM, first compound 0.000949 µM): 13.4%; viability, T/C (second compound 1 µM, first compound 0.003 µM): 17.6%; viability, T/C [17]: 15.1%; viability, T/C [18]: 15%; viability, T/C [19]: 14.9%; viability, T/C [20]: 13.9%
CC(C)(C)c1cnc(CSc2cnc(NC(=O)C3CCNCC3)s2)o1 + CCN1CCN(Cc2ccc(Nc3ncc(F)c(-c4cc(F)c5nc(C)n(C(C)C)c5c4)n3)nc2)CC1 | 24.1 | < 9.49 | < 9.49 | < 9.49 | < 9.49 | 69.8 | 45.4 | 8.31 | 2.5 | 47.7 | 36.2 | 6.02 | 2.71 | 24.8 | 17.7 | 4.01 | 2.44 | 14.4 | 13.7 | 1.91 | viability, T/C (second compound 0.01 µM, first compound 0.949 µM): 2.72%; viability, T/C (second compound 0.01 µM, first compound 3 µM): 2.34%; viability, T/C (second compound 0.0316 µM, first compound 0.949 µM): 2.93%; viability, T/C (second compound 0.0316 µM, first compound 3 µM): 2.49%; viability, T/C (second compound 0.1 µM, first compound 0.949 µM): 3%; viability, T/C (second compound 0.1 µM, first compound 3 µM): 2.01%; viability, T/C [16]: 2.83%; viability, T/C (second compound 0.316 µM, first compound 0.949 µM): 3.36%; viability, T/C (second compound 0.316 µM, first compound 3 µM): 2.48%; viability, T/C [17]: 13.9%; viability, T/C [18]: 9.5%; viability, T/C [19]: 2.29%; viability, T/C [20]: 4.08%; viability, T/C (second compound 1 µM, first compound 0.949 µM): 4.05%; viability, T/C (second compound 1 µM, first compound 3 µM): 3.25%
